Usually EC50 stands for the concentration that produces a half-maximal response.

The text below walks through data of ChEMBL document CHEMBL4808187, “Antiarrhythmic Hit to Lead Refinement in a Dish Using Patient-Derived iPSC Cardiomyocytes” (J Med Chem, 2021).

Each structure is given as a SMILES string. The source made the active and inactive calls. No cut-off for these calls is given here. Where only a bound is given, the exact number is not on record here.

Data set [1] in a line: Antiarrhythmic activity in hiPSC-CMs assessed as cessation dose of cell beating. The note with it: human, ipsc-cm.
A short description of data set [2]: Antiarrhythmic activity in patient-derived hiPSC-CMs carrying LQT3 mutation assessed as shortening dose of action potential. It is filed as functional, Homo sapiens, iPSC-CM.
Data set [3] can be described thus: Antiarrhythmic activity in patient-derived hiPSC-CMs carrying LQT3 mutation assessed as fold shortening of action potential duration relative to control. The data set is classed as functional, Homo sapiens, iPSC-CM.
Data set [4] can be described thus: Antiarrhythmic activity in patient-derived hiPSC-CMs carrying LQT3 mutation assessed as shortening of action potential duration. The following applies: ipsc-cm. It is filed as functional, Homo sapiens.
The nature of data set [5]: (§1) Antiarrhythmic activity in patient-derived hiPSC-CMs carrying LQT3 mutation assessed as cessation dose for cell beating. It is filed as functional, Homo sapiens, iPSC-CM.
Data set [6] in a line: Antiarrhythmic activity in hiPSC-CMs assessed as dose for induction of early after depolarizations. The note with it: human, ipsc-cm.
Data set [7] in a line: Antiarrhythmic activity in hiPSC-CMs assessed as fold prolongation of action potential relative to control. The following applies: human, ipsc-cm.
Data set [8] in a line: Antiarrhythmic activity in hiPSC-CMs assessed as prolongation of action potential. Also noted: species or system Homo sapiens, iPSC-CM.
For another data set, the system named is iPSC-CM. Described as §1. It is filed as functional. The following applies: Homo sapiens.
[9] abbreviates: Homo sapiens, iPSC-CM, read-out: EC50.

As for `Cc1ccc(OCC(N)C2CC2)cc1C.Cl` (centres undefined), the Activity in data set [1] was 66 µM; in [2], 22 µM; in data set [5] it was 66 µM; in data set [6], “Not Active”; in data set [7], “Not Active”. Further, the “fold change (FC)” value in data set [3] is 1.18. The EC50 entry in data set [4] is on record as “Not Active”.

Take `CCc1ccccc1OCC(N)c1ccccc1.Cl` (centres undefined): the Activity in data set [1] was 66 µM; in data set [2], 7.4 µM; in [5], 22 µM; in [6], “Not Active”. The values for the 50% effective concentration (EC50) entry in [8] (ipsc-cm) and in data set [4] (read-out: EC50) were “Not Active” and below 0.8 µM, respectively. Also, in [3], the “fold change (FC)” value amounted to 1.979.

With `Cl.NC(COc1ccccc1OC(F)(F)F)c1ccccc1` (centres undefined), the Activity in [1] was 66 µM; in data set [2], 22 µM; in data set [5] it was 66 µM; in [6], “Not Active”. Further, the values for the concentration for a half-maximal effect (EC50) entry in [8] (ipsc-cm) and in data set [4] (read-out: EC50) were “Not Active” and 2.6 µM, respectively. Further, the “fold change (FC)” value in data set [3] came out at 1.513.

In the case of `CCCNC(C)COc1c(C)cccc1C.Cl` (centres undefined), the Activity in [1] came to 200 µM; in [2], 2.5 µM; in data set [5] it was 200 µM; in data set [6], 66 µM. Also, the results for the half-maximal effective concentration (EC50) in [8] (setting [9]) and in data set [4] were 10.4 µM and “Not Active”, respectively. The “fold change (FC)” value in data set [3] was found to be 1.199.

Turning to `CCCCNC(C)COc1c(C)cccc1C.Cl` (centres undefined), the Activity in [1] came to 133 µM; in data set [2], 2.5 µM; in data set [5], 66 µM; in [6], 66 µM. For the same compound, the concentration for a half-maximal effect (EC50) is 7.8 µM in [8] (setting [9]) and below 0.8 µM in data set [4] (read-out: EC50). In addition, the “fold change (FC)” value in data set [3] is recorded as 1.18.

On to `Cc1ccc(OCC(N)C2CC2)c(C)c1.Cl` (centres undefined), for which the Activity came to 200 µM in [1], 66 µM in data set [2], 200 µM in data set [5] and 66 µM in data set [6]. The “fold change (FC)” value came to 1.119 in data set [3] and 2.12 in [7]. Further, the EC50 in data set [4] (read-out: EC50) was found to be 1.36 µM.

On to `CNC(COc1cccc(C)c1C)c1ccccc1.Cl` (centres undefined), for which the Activity in data set [1] was 133 µM; in data set [2], 22 µM; in data set [5] it was 66 µM; in data set [6], “Not Active”; in [7], “Not Active”. The “fold change (FC)” value in [3] stood at 1.29. The concentration for a half-maximal effect (EC50) result in data set [4] is “Not Active”.

Turning to `COc1ccccc1OCC(N)c1ccccc1.Cl` (centres undefined), the Activity in [1] worked out at 22 µM; in data set [2], 0.8 µM; in data set [5] it was 133 µM; in data set [6], 7.4 µM. For the same compound, the EC50 in data set [8] (setting [9]) is 32.2 µM; in data set [4] (read-out: EC50), below 0.8 µM. In addition, the “fold change (FC)” value in [3] is 1.482.

Take `Cc1cccc(C)c1OCC(N)C1CCCCC1.Cl` (centres undefined): the Activity in [1] was 66 µM; in data set [2], 0.8 µM; in data set [5], 66 µM; in [6] it was “Not Active”. Besides, the half-maximal effective concentration (EC50) entry is “Not Active” in [8] (ipsc-cm) and below 0.8 µM in data set [4] (read-out: EC50). For the same compound, in data set [3], the “fold change (FC)” value was 1.136.

Consider `Cl.NC(COc1cccc2ccccc12)c1ccccc1` (centres undefined), for which the Activity entry in [1] is “Not Active”; in data set [2] it was 66 µM; in data set [5], 66 µM; in [6] it was “Not Active”. Besides, the results for the EC50 result in data set [8] (ipsc-cm) and in data set [4] (read-out: EC50) were “Not Active” and 0.82 µM, respectively. The “fold change (FC)” value in data set [3] is on record as 1.316.

As to `CC(N)COc1cccc(C(F)(F)F)c1.Cl` (centres undefined), the Activity in data set [1] is 200 µM; in data set [2] it was 133 µM; in [5] it was 200 µM; in data set [6], “Not Active”. Also, the EC50 entry in data set [8] (ipsc-cm) was “Not Active”; in [4] (read-out: EC50) it was 31.3 µM. Also, in [3], the “fold change (FC)” value stood at 1.661.

`CC(N)COc1cc(C(F)(F)F)cc(C(F)(F)F)c1.Cl` (centres undefined): the Activity in data set [1] was 133 µM; in [2], 7.4 µM; in data set [5], 66 µM; in [6], “Not Active”. Further, the results for the EC50 result in data set [8] (ipsc-cm) and in data set [4] (read-out: EC50) were “Not Active” and 0.9 µM, respectively. Further, the “fold change (FC)” value in data set [3] is 1.2.

Turning to `Cc1cccc(C)c1OCC(C)NCc1ccccc1.Cl` (centres undefined), the Activity in [1] was 200 µM; in data set [2], 22 µM; in data set [5], 133 µM; in [6], “Not Active”. The EC50 in data set [8] (setting [9]) was 5.7 µM; in data set [4] it was “Not Active”. For the same compound, in data set [3], the “fold change (FC)” value was found to be 1.264.

As for `Cc1cccc(OCC(N)c2ccccc2)c1.Cl` (centres undefined), the Activity is 133 µM in data set [1], 22 µM in [2], 66 µM in data set [5] and “Not Active” in [6]. Besides, the EC50 entry was “Not Active” in data set [8] (ipsc-cm) and below 0.8 µM in data set [4] (read-out: EC50). In addition, the “fold change (FC)” value in data set [3] came out at 1.41.

For `Cc1cccc(C)c1OCC(N)c1ccccc1.Cl` (centres undefined), the “fold change (FC)” value in [7] is on record as 4.

For the compound `CCCc1ccccc1OCC(N)c1ccccc1.Cl` (centres undefined), the Activity in data set [1] was 22 µM; in data set [2], 2.5 µM; in [5], 22 µM; in data set [6], “Not Active”. Also, the EC50 result was “Not Active” in [8] (ipsc-cm) and below 0.8 µM in [4] (read-out: EC50). Besides, the “fold change (FC)” value in data set [3] amounted to 1.321.

Turning to `Cc1cc(C)cc(OCC(NCCO)c2ccccc2)c1.Cl` (centres undefined), the Activity in [1] is 66 µM; in [2] it was 22 µM; in data set [5], 22 µM; in data set [6], “Not Active”; in data set [7], “Not Active”. Besides, in [3], the “fold change (FC)” value was 1.5. The EC50 result in [4] is “Not Active”.

As for `CC(=O)NC(COc1c(C)cccc1C)c1ccccc1` (centres undefined), the Activity result in data set [1] is “Not Active”; in data set [2] it was 22 µM; in [5], 66 µM; in [6] it was “Not Active”; in data set [7], “Not Active”. In addition, the “fold change (FC)” value in data set [3] stood at 1.62. In addition, the EC50 in data set [4] (read-out: EC50) turned out to be 0.8 µM.

As to `Cc1ccc(OCC(N)c2ccccc2)cc1C.Cl` (centres undefined), the Activity in data set [1] is 66 µM; in [2], 22 µM; in data set [5], 66 µM; in data set [6] it was “Not Active”. In addition, the EC50 result in [8] (ipsc-cm) and in [4] was “Not Active” throughout. The “fold change (FC)” value in data set [3] was found to be 1.37.

For the compound `CCCc1ccccc1OCC(C)N.Cl` (centres undefined), the Activity in data set [1] was 200 µM; in data set [2], 7.4 µM; in data set [5], 133 µM; in data set [6] it was “Not Active”. Also, the 50% effective concentration (EC50) was found to be 7.8 µM in data set [8] (setting [9]) and 0.9 µM in data set [4] (read-out: EC50). Further, in [3], the “fold change (FC)” value came out at 1.192.

As for `Cc1ccc(OCC(N)c2ccccc2)c(C)c1.Cl` (centres undefined), the Activity in [1] is 66 µM; in data set [2], 7.4 µM; in data set [5] it was 66 µM; in [6], “Not Active”. In addition, the figures for the EC50 entry in [8] (ipsc-cm) and in data set [4] (read-out: EC50) were “Not Active” and 0.5 µM, respectively. For the same compound, the “fold change (FC)” value in data set [3] is 1.192.

As for `Cl.NC(COc1ccc2ccccc2c1)c1ccccc1` (centres undefined), the Activity entry is “Not Active” in [1], 2.5 µM in data set [2], 133 µM in data set [5] and “Not Active” in [6]. Further, the values for the EC50 entry in data set [8] (ipsc-cm) and in data set [4] (read-out: EC50) were “Not Active” and 8.7 µM, respectively. Moreover, the “fold change (FC)” value in [3] is listed as 1.459.

As for `Cl.NC(COc1cccc(C(F)(F)F)c1)c1ccccc1` (centres undefined), the Activity is 66 µM in data set [1], 22 µM in data set [2], 66 µM in data set [5] and “Not Active” in data set [6]. For the same compound, the half-maximal effective concentration (EC50) result is “Not Active” in [8] (ipsc-cm) and 4.1 µM in data set [4] (read-out: EC50). For the same compound, the “fold change (FC)” value in [3] worked out at 1.539.

Consider `Cc1cccc(C)c1OCC(N)c1ccc2ccccc2c1.Cl` (centres undefined), for which the Activity entry in [1] is “Not Active”; in data set [2] it was 22 µM; in data set [5], 133 µM; in [6], “Not Active”. For the same compound, the concentration giving a half-maximal response (EC50) entry in data set [8] (ipsc-cm) is “Not Active”; in [4] (read-out: EC50), 4.73 µM. Further, the “fold change (FC)” value in data set [3] stood at 1.309.

As for `CCCCNC(COc1cccc(C)c1C)c1ccccc1.Cl` (centres undefined), the Activity is 133 µM in data set [1]; 133 µM in data set [2]; 200 µM in [5]; “Not Active” in [6]; “Not Active” in [7]. Also, the “fold change (FC)” value in data set [3] turned out to be 1.423. Moreover, the concentration giving a half-maximal response (EC50) in [4] (read-out: EC50) was determined as 20.2 µM.

Turning to `COCCNC(COc1cc(C(F)(F)F)cc(C(F)(F)F)c1)c1ccccc1.Cl` (centres undefined), the Activity entry in data set [1] is “Not Active”; in [2], 66 µM; in data set [5], 66 µM; in [6] it was “Not Active”; in [7] it was “Not Active”. For the same compound, in data set [3], the “fold change (FC)” value came out at 1.636. Moreover, the EC50 in data set [4] (read-out: EC50) came to 6.59 µM.

For `Cl.NC(COc1ccccc1OCC(F)(F)F)c1ccccc1` (centres undefined), the Activity in data set [1] was 66 µM; in [2], 22 µM; in [5], 66 µM; in data set [6], “Not Active”. Besides, the EC50 entry in data set [8] (ipsc-cm) is “Not Active”; in data set [4] (read-out: EC50), 0.9 µM. In data set [3], the “fold change (FC)” value worked out at 1.409.

With `COCCNC(C)COc1c(C)cccc1C.Cl` (centres undefined), the Activity entry in [1] is “Not Active”; in data set [2], 7.4 µM; in data set [6], 66 µM. The EC50 in data set [8] (setting [9]) was found to be 32 µM; in data set [4] (read-out: EC50), 2.3 µM. For the same compound, the outcome with iPSC-CM was inactive.
